From PubChem BioAssay (NCI)
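Cultured in 96-well plates, cells were exposed to test compound for 48 hours across five concentrations. GI50 marks 50% less growth. Definition used: TGI = concentration required for complete inhibition of growth.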

Key:
Experiment in all cases: DTP human tumour cell line panel, 48 h; in the data active means GI50 below about 0.43 µM; inactive means the rest
UACC-62 melanoma = tested on: UACC-62 melanoma
SK-MEL-28 melanoma = tested on: SK-MEL-28 melanoma
M14 melanoma = tested on: M14 melanoma
HCT-116 colon = tested on: HCT-116 colon
LOX IMVI melanoma = tested on: LOX IMVI melanoma
NCI-H522 lung = tested on: NCI-H522 lung
SN12C renal = tested on: SN12C renal
KM12 colon = tested on: KM12 colon
RXF 393 renal = tested on: RXF 393 renal
SK-MEL-2 melanoma = tested on: SK-MEL-2 melanoma

C=CC(OCC)(OCC)OCC
43.6 µM: TGI (HCT-116 colon)
> 100 µM: TGI (UACC-62 melanoma) | TGI (SK-MEL-28 melanoma) | TGI (M14 melanoma) | TGI (LOX IMVI melanoma) | TGI (NCI-H522 lung) | TGI (SN12C renal) | TGI (KM12 colon) | TGI (RXF 393 renal) | TGI (SK-MEL-2 melanoma)

O=c1oc2ccc(I)cc2c(=O)n1-c1ccc(Cl)cc1F
2.98 µM: TGI (SK-MEL-28 melanoma)
3.43 µM: TGI (SK-MEL-2 melanoma)
inactive: GI50 (M14 melanoma) 0.598 µM | GI50 (HCT-116 colon) 1.21 µM | GI50 (LOX IMVI melanoma) 1.33 µM | GI50 (NCI-H522 lung) 0.8 µM | GI50 (SN12C renal) 0.8 µM | GI50 (KM12 colon) 2.22 µM | GI50 (RXF 393 renal) 1.44 µM | GI50 (SK-MEL-2 melanoma) 0.582 µM
9.72 µM: TGI (NCI-H522 lung)
2.28 µM: TGI (UACC-62 melanoma)
8.77 µM: TGI (SN12C renal)
5.39 µM: TGI (KM12 colon)
11.4 µM: TGI (LOX IMVI melanoma)
7.87 µM: TGI (M14 melanoma)
3.86 µM: TGI (HCT-116 colon)
active: GI50 (UACC-62 melanoma) 0.419 µM | GI50 (SK-MEL-28 melanoma) 0.416 µM
5.32 µM: TGI (RXF 393 renal)

O=[N+]([O-])c1ccc(Sc2c3ccccc3nc3cc(Cl)ccc23)cc1
inactive: GI50 (UACC-62 melanoma) > 100 µM | GI50 (SK-MEL-28 melanoma) > 100 µM | GI50 (M14 melanoma) > 100 µM | GI50 (HCT-116 colon) > 100 µM | GI50 (LOX IMVI melanoma) > 100 µM | GI50 (NCI-H522 lung) > 100 µM | GI50 (SN12C renal) > 100 µM | GI50 (KM12 colon) > 100 µM | GI50 (SK-MEL-2 melanoma) > 100 µM
> 100 µM: TGI (UACC-62 melanoma) | TGI (SK-MEL-28 melanoma) | TGI (M14 melanoma) | TGI (HCT-116 colon) | TGI (LOX IMVI melanoma) | TGI (NCI-H522 lung) | TGI (SN12C renal) | TGI (KM12 colon) | TGI (RXF 393 renal) | TGI (SK-MEL-2 melanoma)

O=C(N/N=C/c1ccccc1O)c1ccccc1
50.9 µM: TGI (RXF 393 renal)
7.16 µM: TGI (UACC-62 melanoma)
5.19 µM: TGI (HCT-116 colon)
active: GI50 (HCT-116 colon) 0.309 µM
10.9 µM: TGI (LOX IMVI melanoma)
15.3 µM: TGI (M14 melanoma)
inactive: GI50 (UACC-62 melanoma) 1.87 µM | GI50 (SK-MEL-28 melanoma) 6.69 µM | GI50 (M14 melanoma) 1.75 µM | GI50 (LOX IMVI melanoma) 1.47 µM | GI50 (NCI-H522 lung) 2.67 µM | GI50 (SN12C renal) 2.45 µM | GI50 (KM12 colon) 4.1 µM | GI50 (RXF 393 renal) 2.68 µM | GI50 (SK-MEL-2 melanoma) > 100 µM
> 100 µM: TGI (SK-MEL-28 melanoma) | TGI (SN12C renal) | TGI (KM12 colon) | TGI (SK-MEL-2 melanoma)
53 µM: TGI (NCI-H522 lung)

Nc1ncnc2c1ncn2CC(O)CO (centres undefined)
> 100 µM: TGI (UACC-62 melanoma) | TGI (SK-MEL-28 melanoma) | TGI (M14 melanoma) | TGI (HCT-116 colon) | TGI (LOX IMVI melanoma) | TGI (NCI-H522 lung) | TGI (SN12C renal) | TGI (KM12 colon) | TGI (RXF 393 renal) | TGI (SK-MEL-2 melanoma)
